The record followed here is patent US9282741B2, “Aniline type compounds” (BASF SE, priority 2011, dated 2016).

Data set [1] is described as follows: log P determination via capillary electrophorese (cePro9600). Type of data set: physicochemical. As to conditions: pH = 10.0. Here is the method:
log P determinations were performed via capillary electrophorese on a cePro9600™ from CombiSep.

The test system of data set [2] is vetch aphid (Megoura viciae). As to the kind of experiment: Vetch aphid (Megoura viciae) broad bean leaf disk microtiter test. The settings on record: 1415 ppm; broad bean leaf disks; 5 days. Type of data set: in vivo. On the procedure: B.2 Vetch Aphid (Megoura viciae)
For evaluating control of vetch aphid (Megoura viciae) through contact or systemic means the test unit consists of 24-well-microtiter plates containing broad bean leaf disks.
The compounds are formulated using a solution containing 75% v/v water and 25% v/v DMSO. Different concentrations of formulated compounds are sprayed onto the leaf disks at 2.5 μl, using a custom built micro atomizer, at two replications.
After application, the leaf disks are air-dried and 5-8 adult aphids placed on the leaf disks inside the microtiter plate wells. The aphids are then allowed to suck on the treated leaf disks and incubated at about […] and about 50±5% relative humidity for 5 days. Aphid mortality and fecundity is then visually assessed.

Data set [3] has as its system Tobacco Budworm (Heliothis virescens). Briefly: Tobacco budworm (Heliothis virescens) I, foliar spray on cotton plants. Type of data set: in vivo. The settings on record: 800 ppm, 4 days after treatment. On the procedure:
B.3 Tobacco Budworm (Heliothis virescens) I
The active compounds are formulated in cyclohexanone as a 10,000 ppm solution supplied in tubes. The tubes are inserted into an automated electrostatic sprayer equipped with an atomizing nozzle and they serve as stock solutions for which lower dilutions are made in 50% acetone:50% water (v/v). A nonionic surfactant (Kinetic®) is included in the solution at a volume of 0.01% (v/v).
Cotton plants are grown 2 plants to a pot and selected for treatment at the cotyledon stage. Test solutions are sprayed onto the foliage by an automated electrostatic plant sprayer equipped with an atomizing spray nozzle. The plants are dried in the sprayer fume hood and then removed from the sprayer. Each pot is placed into perforated plastic bags with a zip closure. About 10 to 11 budworm larvae are placed into the bag and the bags zipped closed. Test plants are maintained in a growth room at about 250C and about 20-40% relative humidity for 4 days, avoiding direct exposure to fluorescent light (24 hour photoperiod) to prevent trapping of heat inside the bags. Mortality and reduced feeding are assessed 4 days after treatment, compared to untreated control plants.

`CCCS(C)=NC(=O)c1cc(I)cc(C)c1NC(=O)c1cc(Br)nn1-c1ncccc1Cl` (racemic) [compound 272]: the logP result in data set [1] is “logP: 3.2 [pH = 10.0]”.

For the compound `CCS(CC1CC1)=NC(=O)c1cc(Cl)cc(C)c1N` (centres unmarked) [S.9], the “mortality in comparison with untreated controls” value in data set [2] is “over 75%”.

For `CCCS(CCC)=NC(=O)c1cc(Cl)cc(Cl)c1N` [S.22], the “mortality in comparison with untreated controls” value in data set [3] is reported as “over 75%”.

In the case of `CCCS(C)=NC(=O)c1cc(Cl)cc(C)c1NC(=O)c1cc(C(F)(F)F)nn1-c1ncccc1Cl` (centres unmarked) [compound 11], the logP result in data set [1] is “logP: 3.2 [pH = 10.0]”.

Consider `Cc1cc(Cl)cc(C(=O)N=S(C(C)C)C(C)C)c1NC(=O)c1cc(C(F)(F)F)nn1-c1ncccc1Cl` [compound 24], for which, in data set [1], the logP result is “logP: 3.3 [pH = 10.0]”.

As to `Cc1cc(I)cc(C(=O)N=S(C)C)c1NC(=O)c1cc(C(F)(F)F)nn1-c1ncccc1Cl` [compound 31], the logP result in data set [1] is “logP: 3.2 [pH = 10.0];”.

With `CCS(C)=NC(=O)c1cc(I)cc(C)c1NC(=O)c1cc(C(F)(F)F)nn1-c1ncccc1Cl` (centres unmarked) [compound 33], the logP entry in data set [1] is “logP: 3.3 [pH = 10.0];”.

In the case of `CCCCCS(CCO)=NC(=O)c1cc(Cl)cc(C)c1NC(=O)c1cc(C(F)(F)F)nn1-c1ncccc1Cl` (centres unmarked) [compound 48], in data set [1], the logP entry was “logP: 3.6 [pH = 10.0];”.

As to `Cc1cc(I)cc(C(=O)N=S2CCCCC2)c1NC(=O)c1cc(C(F)(F)F)nn1-c1ncccc1Cl` [compound 71], the logP result in data set [1] is “logP: 3.6 [pH = 10.0];”.

`CCCS(C)=NC(=O)c1cc(I)cc(C)c1NC(=O)c1cc(C(F)(F)F)nn1-c1ncccc1Cl` (centres unmarked) [compound 93]: the logP result in data set [1] was “logP: 3.6 [pH = 10.0];”.

Turning to `Cc1cc(Cl)cc(C(=O)N=S(C)C)c1NC(=O)c1cc(C(F)(F)F)nn1-c1ncccc1Cl` [compound 110], in data set [1], the logP result is “logP: 2.9 [pH = 10.0];”.

Turning to `CCCCCS(CCO)=NC(=O)c1cc(I)cc(C)c1NC(=O)c1cc(C(F)(F)F)nn1-c1ncccc1Cl` (centres unmarked) [compound 113], the logP result in data set [1] was “logP: 3.9 [pH = 10.0];”.

In the case of `Cc1cc(I)cc(C(=O)N=S(C(C)C)C(C)C)c1NC(=O)c1cc(C(F)(F)F)nn1-c1ncccc1Cl` [compound 120], the logP entry in data set [1] is “logP: 3.4 [pH = 10.0];”.

Turning to `Cc1cc(I)cc(C(=O)N=S2CCSC2)c1NC(=O)c1cc(C(F)(F)F)nn1-c1ncccc1Cl` (centres unmarked) [compound 129], the logP entry in data set [1] is “logP: 3.5 [pH = 10.0];”.

As for `Cc1cc(I)cc(C(=O)N=S2CCCC2)c1NC(=O)c1cc(C(F)(F)F)nn1-c1ncccc1Cl` [compound 137], the logP entry in data set [1] is “logP: 3.1 [pH = 10.0];”.

`CCS(C)=NC(=O)c1cc(Cl)cc(C)c1NC(=O)c1cc(C(F)(F)F)nn1-c1ncccc1Cl` (centres unmarked) [compound 152]: in data set [1], the logP entry was “logP: 2.9 [pH = 10.0];”.

On to `C#CCOc1cc(C(=O)Nc2c(C)cc(I)cc2C(=O)N=S(CCO)CCCCC)n(-c2ncccc2Cl)n1` (centres unmarked) [compound 195], for which the logP result in data set [1] is “logP: 3.5 [pH = 10.0]”.

Take `C#CCOc1cc(C(=O)Nc2c(C)cc(I)cc2C(=O)N=S(C(C)C)C(C)C)n(-c2ncccc2Cl)n1` [compound 196]: the logP result in data set [1] was “logP: 3.1 [pH = 10.0]”.

On to `C#CCOc1cc(C(=O)Nc2c(C)cc(Cl)cc2C(=O)N=S(C(C)C)C(C)C)n(-c2ncccc2Cl)n1` [compound 197], for which, in data set [1], the logP entry was “logP: 2.7 [pH = 10.0]”.

For the compound `Cc1cccc(C(=O)N=S(C)C)c1NC(=O)c1cc(C(F)(F)F)nn1-c1ncccc1Cl` [compound 199], the logP entry in data set [1] was “logP: 2.2 [pH = 10.0];”.

On to `C#CCOc1cc(C(=O)Nc2c(C)cc(Cl)cc2C(=O)N=S2CCSC2)n(-c2ncccc2Cl)n1` (centres unmarked) [compound 200], for which the logP result in data set [1] was “logP: 2.5 [pH = 10.0]”.

For the compound `C#CCOc1cc(C(=O)Nc2c(C)cc(Cl)cc2C(=O)N=S(C)c2ccc(F)cc2)n(-c2ncccc2Cl)n1` (centres unmarked) [compound 201], in data set [1], the logP entry is “logP: 2.9 [pH = 10.0]”.

As to `C#CCOc1cc(C(=O)Nc2c(C)cc(I)cc2C(=O)N=S(C)c2ccc(F)cc2)n(-c2ncccc2Cl)n1` (centres unmarked) [compound 204], the logP entry in data set [1] was “logP: 3.4 [pH = 10.0]”.

Consider `C#CCOc1cc(C(=O)Nc2c(C)cc(Cl)cc2C(=O)N=S2CCCCC2)n(-c2ncccc2Cl)n1` [compound 209], for which the logP entry in data set [1] is “logP: 2.8 [pH = 10.0]”.

As to `CCS(C)=NC(=O)c1cccc(C)c1NC(=O)c1cc(C(F)(F)F)nn1-c1ncccc1Cl` (centres unmarked) [compound 210], the logP entry in data set [1] is “logP: 2.5 [pH = 10.0];”.

Take `CCCS(C)=NC(=O)c1cccc(C)c1NC(=O)c1cc(C(F)(F)F)nn1-c1ncccc1Cl` (centres unmarked) [compound 211]: the logP result in data set [1] was “logP: 2.8 [pH = 10.0];”.

With `CCCCCS(CCO)=NC(=O)c1cccc(C)c1NC(=O)c1cc(C(F)(F)F)nn1-c1ncccc1Cl` (centres unmarked) [compound 213], the logP result in data set [1] is “logP: 3.4 [pH = 10.0];”.

In the case of `Cc1cccc(C(=O)N=S(C(C)C)C(C)C)c1NC(=O)c1cc(C(F)(F)F)nn1-c1ncccc1Cl` [compound 214], the logP result in data set [1] was “logP: 2.7 [pH = 10.0];”.

For the compound `Cc1cccc(C(=O)N=S(C)c2ccc(F)cc2)c1NC(=O)c1cc(C(F)(F)F)nn1-c1ncccc1Cl` (centres unmarked) [compound 215], in data set [1], the logP entry was “logP: 3.2 [pH = 10.0];”.

For `C#CCOc1cc(C(=O)Nc2c(C)cc(Cl)cc2C(=O)N=S(CCO)CCCCC)n(-c2ncccc2Cl)n1` (centres unmarked) [compound 216], the logP result in data set [1] is “logP: 3.3 [pH = 10.0]”.

Regarding `Cc1cc(I)cc(C(=O)N=S2CCSC2)c1NC(=O)c1cc(Br)nn1-c1ncccc1Cl` (centres unmarked) [compound 221], the logP result in data set [1] is “logP: 3.3 [pH = 10.0];”.

Regarding `Cc1cccc(C(=O)N=S2CCCC2)c1NC(=O)c1cc(Br)nn1-c1ncccc1Cl` [compound 222], the logP entry in data set [1] was “logP: 2.1 [pH = 10.0]”.

`CCS(C)=NC(=O)c1cc(I)cc(C)c1NC(=O)c1cc(Br)nn1-c1ncccc1Cl` (centres unmarked) [compound 223]: the logP result in data set [1] is “logP: 3.1 [pH = 10.0];”.

For the compound `CCS(C)=NC(=O)c1cc(Cl)cc(C)c1NC(=O)c1cc(Br)nn1-c1ncccc1Cl` (centres unmarked) [compound 224], the logP result in data set [1] was “logP: 2.7 [pH = 10.0];”.

As for `Cc1cc(Cl)cc(C(=O)N=S(C)c2ccc(F)cc2)c1NC(=O)c1cc(Br)nn1-c1ncccc1Cl` (centres unmarked) [compound 235], the logP result in data set [1] is “logP: 3.2 [pH = 10.0];”.

For the compound `Cc1cccc(C(=O)N=S(C(C)C)C(C)C)c1NC(=O)c1cc(Br)nn1-c1ncccc1Cl` [compound 236], in data set [1], the logP entry was “logP: 2.3 [pH = 10.0];”.

On to `Cc1cccc(C(=O)N=S(C)c2ccc(F)cc2)c1NC(=O)c1cc(Br)nn1-c1ncccc1Cl` (centres unmarked) [compound 237], for which the logP result in data set [1] was “logP: 2.7 [pH = 10.0];”.

For the compound `Cc1cc(I)cc(C(=O)N=S(C)c2ccc(F)cc2)c1NC(=O)c1cc(Br)nn1-c1ncccc1Cl` (centres unmarked) [compound 238], the logP entry in data set [1] is “logP: 3.5 [pH = 10.0];”.

With `CCCS(C)=NC(=O)c1cc(Cl)cc(C)c1NC(=O)c1cc(Br)nn1-c1ncccc1Cl` (centres unmarked) [compound 242], in data set [1], the logP result is “logP: 2.9 [pH = 10.0];”.

As for `Cc1cc(Cl)cc(C(=O)N=S(C(C)C)C(C)C)c1NC(=O)c1cc(Br)nn1-c1ncccc1Cl` [compound 243], the logP entry in data set [1] was “logP: 2.9 [pH = 10.0]”.

For `Cc1cc(I)cc(C(=O)N=S2CCCC2)c1NC(=O)c1cc(Br)nn1-c1ncccc1Cl` [compound 246], the logP result in data set [1] was “logP: 2.9 [pH = 10.0];”.

Turning to `CCCCCS(CCO)=NC(=O)c1cccc(C)c1NC(=O)c1cc(Br)nn1-c1ncccc1Cl` (centres unmarked) [compound 250], the logP entry in data set [1] is “logP: 2.9 [pH = 10.0]”.

Consider `CCCCCS(CCO)=NC(=O)c1cc(I)cc(C)c1NC(=O)c1cc(Br)nn1-c1ncccc1Cl` (centres unmarked) [compound 252], for which the logP entry in data set [1] was “logP: 3.7 [pH = 10.0]”.

Consider `Cc1cc(I)cc(C(=O)N=S(C(C)C)C(C)C)c1NC(=O)c1cc(Br)nn1-c1ncccc1Cl` [compound 257], for which the logP entry in data set [1] is “logP: 3.3 [pH = 10.0];”.

With `CCCCCS(CCO)=NC(=O)c1cc(Cl)cc(C)c1NC(=O)c1cc(Br)nn1-c1ncccc1Cl` (centres unmarked) [compound 258], the logP entry in data set [1] was “logP: 3.4 [pH = 10.0];”.

Take `C=CS(CC)=NC(=O)c1cccc(C)c1NC(=O)c1cc(Br)nn1-c1ncccc1Cl` (centres unmarked) [compound 261]: the logP entry in data set [1] was “logP: 2.1 [pH = 10.0];”.

With `CCCS(C)=NC(=O)c1cccc(C)c1NC(=O)c1cc(Br)nn1-c1ncccc1Cl` (centres unmarked) [compound 263], the logP result in data set [1] is “logP: 2.3 [pH = 10.0];”.

With `Cc1cc(I)cc(C(=O)N=S2CCCCC2)c1NC(=O)c1cc(Br)nn1-c1ncccc1Cl` [compound 267], in data set [1], the logP result is “logP: 3.4 [pH = 10.0];”.

With `CCS(CCCl)=NC(=O)c1cc(I)cc(C)c1NC(=O)c1cc(Br)nn1-c1ncccc1Cl` (centres unmarked) [compound 268], in data set [1], the logP result is “logP: 3.2 [pH = 10.0];”.

For `Cc1cccc(C(=O)N=S(C)C)c1NC(=O)c1cc(Br)nn1-c1ncccc1Cl` [compound 274], the logP result in data set [1] was “logP: 1.9 [pH = 10.0];”.
